According to the supplement of paper PMC10307832:

Tests used:
Test in all cases: relative viability (nuclei count vs DMSO), 5 days (fraction); higher = more cells survive
Ponatinib + Vorinostat = compound: Cc1ccc(C(=O)Nc2ccc(CN3CCN(C)CC3)c(C(F)(F)F)c2)cc1C#Cc1cnc2cccnn12 [Ponatinib] + O=C(CCCCCCC(=O)Nc1ccccc1)NO [Vorinostat] (partner 1 µM)
In short: (§1)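 After 5 days of treatment, lung cancer cells in 1536-well plates were fixed and stained in a single step (final 0.05% Triton X-100, 1% formaldehyde, 1 ug/ml Hoechst) and their nuclei counted on 4× images. Treatment had been applied by pin tool the day after seeding as one drug alone or as a fixed anchor-drug dose with five library-drug doses (not always all listed) in √10 steps. Relative viability is the nuclei count of treated wells divided by that of vehicle wells, and values are medians of duplicate plates.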

Ponatinib + Decitabine = compound: Cc1ccc(C(=O)Nc2ccc(CN3CCN(C)CC3)c(C(F)(F)F)c2)cc1C#Cc1cnc2cccnn12 [Ponatinib] + Nc1ncn([C@H]2C[C@H](O)[C@@H](CO)O2)c(=O)n1 [Decitabine] (partner 2 µM)
In short: as §1

Ponatinib + Foretinib = compound: Cc1ccc(C(=O)Nc2ccc(CN3CCN(C)CC3)c(C(F)(F)F)c2)cc1C#Cc1cnc2cccnn12 [Ponatinib] + COc1cc2c(Oc3ccc(NC(=O)C4(C(=O)Nc5ccc(F)cc5)CC4)cc3F)ccnc2cc1OCCCN1CCOCC1 [Foretinib] (partner 0.25 µM)
In short: as §1

Pazopanib + Navitoclax = compound: Cc1ccc(Nc2nccc(N(C)c3ccc4c(C)n(C)nc4c3)n2)cc1S(N)(=O)=O [Pazopanib] + CC1(C)CCC(c2ccc(Cl)cc2)=C(CN2CCN(c3ccc(C(=O)NS(=O)(=O)c4ccc(N[C@H](CCN5CCOCC5)CSc5ccccc5)c(S(=O)(=O)C(F)(F)F)c4)cc3)CC2)C1 [Navitoclax] (partner 0.5 µM)
In short: as §1

Cell Line | relative viability (Ponatinib + Vorinostat; first compound 0.002 µM) | relative viability (Ponatinib + Vorinostat; first compound 0.006325 µM) | relative viability (Ponatinib + Vorinostat; first compound 0.06325 µM) | relative viability (Ponatinib + Vorinostat; first compound 0.2 µM) | relative viability (Ponatinib + Decitabine; first compound 0.002 µM) | relative viability (Ponatinib + Decitabine; first compound 0.006325 µM) | relative viability (Ponatinib + Decitabine; first compound 0.06325 µM) | relative viability (Ponatinib + Decitabine; first compound 0.2 µM) | relative viability (Ponatinib + Foretinib; first compound 0.002 µM) | relative viability (Ponatinib + Foretinib; first compound 0.006325 µM) | relative viability (Ponatinib + Foretinib; first compound 0.06325 µM) | relative viability (Ponatinib + Foretinib; first compound 0.2 µM) | relative viability (Pazopanib + Navitoclax; first compound 0.01 µM) | relative viability (Pazopanib + Navitoclax; first compound 0.03162 µM) | relative viability (Pazopanib + Navitoclax; first compound 0.1 µM) | relative viability (Pazopanib + Navitoclax; first compound 0.3162 µM) | relative viability (Pazopanib + Navitoclax; first compound 1 µM)
201T | 0.965 | 0.992 | 1.05 | 0.939 | 0.849 | 0.862 | 0.914 | 0.811 | 1.1 | 1.1 | 1.18 | 1.03 | 1.21 | 1.22 | 1.26 | 1.18 | 1.17
A549 |  |  |  |  | 0.238 | 0.294 | 0.324 | 0.295 | 0.965 | 0.941 | 1.13 | 0.887 | 1.16 | 1.18 | 1.21 | 1.21 | 1.26
A-427 | 0.829 | 0.904 | 1.03 | 0.881 | 0.547 | 0.507 | 0.592 | 0.49 | 1 | 1.19 | 1.11 | 0.715 | 1.03 | 1.07 | 0.977 | 0.941 | 1.04
ABC-1 | 0.786 | 1.06 | 0.988 | 0.994 | 1 | 1.03 | 1.16 | 0.91 | 1.01 | 0.995 | 1.15 | 1.09 |  |  |  |  | 
BEN | 0.562 | 0.631 | 0.666 | 0.546 | 0.723 | 0.687 | 0.699 | 0.656 | 0.549 | 0.663 | 0.457 | 0.674 | 0.0655 | 0.0679 | 0.0737 | 0.0724 | 0.0586
CAL-12T | 0.958 | 0.666 | 0.864 | 0.876 |  |  |  |  | 1.16 | 0.979 | 1.21 | 1.09 | 1.26 | 1.15 | 1.25 | 1.27 | 1.34
COR-L23 | 0.31 | 0.403 | 0.52 | 0.462 | 0.391 | 0.427 | 0.504 | 0.424 | 0.931 | 0.896 | 0.929 | 0.796 | 0.971 | 1.08 | 0.985 | 0.978 | 1.06
COR-L 105 | 0.802 | 0.953 | 0.899 | 0.837 | 0.671 | 0.674 | 0.821 | 0.61 | 0.882 | 1.15 | 1.23 | 1.3 | 0.891 | 0.698 | 0.787 | 0.732 | 0.773
Calu-6 |  |  |  |  |  |  |  |  | 0.849 | 0.867 | 0.931 | 0.816 | 0.87 | 0.863 | 0.848 | 0.768 | 0.842
ChaGo-K-1 | 0.699 | 0.732 | 0.664 | 0.648 | 0.517 | 0.507 | 0.54 | 0.512 | 0.868 | 0.923 | 0.959 | 0.832 | 0.935 | 1.07 | 0.997 | 0.792 | 1.06
EBC-1 |  |  |  |  |  |  |  |  | 0.106 | 0.0969 | 0.092 | 0.115 | 0.364 | 0.436 | 0.454 | 0.442 | 0.427
EKVX | 0.762 | 0.822 | 0.927 | 0.826 | 0.329 | 0.366 | 0.378 | 0.357 | 0.615 | 0.784 | 0.846 | 1.01 | 0.834 | 0.926 | 0.97 | 0.921 | 1.02
EMC-BAC-2 | 0.288 | 0.337 | 0.427 | 0.368 | 0.927 | 0.899 | 1.04 | 0.842 | 0.965 | 0.989 | 1.06 | 0.986 | 1.04 | 1.21 | 1.15 | 1.15 | 1.15
EPLC-272H | 0.461 | 0.525 | 0.579 | 0.545 | 0.334 | 0.399 | 0.416 | 0.326 | 0.735 | 0.784 | 0.912 | 0.416 | 1.09 | 1.09 | 1.21 | 1.16 | 1.1
H3255 | 0.613 | 0.85 | 0.75 | 0.782 | 0.566 | 0.512 | 0.717 | 0.552 | 0.739 | 0.898 | 0.699 | 0.773 | 0.488 | 0.523 | 0.548 | 0.536 | 0.572
HARA |  | 0.491 | 0.548 | 0.46 | 0.486 | 0.632 | 0.568 | 0.665 | 0.859 | 0.855 | 0.963 | 0.878 | 1.2 | 1.03 | 1.13 | 1.15 | 1.2
HCC-15 | 0.826 | 0.829 | 0.949 | 0.809 | 0.666 | 0.671 | 0.744 | 0.634 | 0.974 | 0.928 | 1.13 | 1.01 | 0.698 | 0.706 | 0.743 | 0.713 | 0.815
HCC-44 | 1.1 | 1.07 | 1.07 | 1.07 | 0.936 | 0.976 | 0.898 | 0.884 |  |  |  |  | 0.87 | 0.896 | 1 | 0.82 | 0.984
HCC-78 | 0.458 | 0.486 | 0.497 | 0.406 | 0.653 | 0.757 | 0.668 | 0.577 | 0.521 | 0.578 | 0.598 | 0.534 | 0.493 | 0.813 | 0.796 | 0.828 | 0.694
HCC-366 | 0.329 | 0.318 | 0.416 | 0.317 | 0.336 | 0.317 | 0.387 | 0.37 | 0.887 | 0.939 | 0.955 | 0.956 | 1.02 | 1.11 | 1.14 | 0.984 | 1.19
